US11155517B2, “4-substituted phenylamine derivatives and their use to protect crops by fighting undesired phytopathogenic micoorganisms” (PI INDUSTRIES LTD., priority 2016, dated 2021)

Key:
Assay type in all cases: cell-based
Pyricularia oryzae = assay: microbe, parasite or virus in culture; details: 168 h, read-out: % control compared to the untreated check (radial growth)
Botrytis cinerea = Botrytis cinerea (gray mold) in vitro test, radial growth on Potato Dextrose Agar; details: 168 h, 300 ppm, seven days, 22° C., read-out: % (control) compared to the untreated check (radial growth)
Rhizoctonia solani = Rhizoctonia solani (rice sheath blight/potato black scurf) in vitro test, radial growth on Potato Dextrose Agar; details: 168 h, 300 ppm, seven days, 25° C., read-out: % control compared to the untreated check (radial growth)
Alternaria solani = Alternaria solani (early blight of tomato/potato) in vitro test, radial growth on Potato Dextrose Agar; details: 168 h, 300 ppm, seven days, 25° C., read-out: % control compared to the untreated check (radial growth)

SMILES	inhibition of growth at 300 ppm (Pyricularia oryzae) [%]	inhibition of growth at 300 ppm (Botrytis cinerea) [%]	inhibition of growth at 300 ppm (Rhizoctonia solani) [%]	inhibition of growth at 300 ppm (Alternaria solani) [%]
Cc1cc(N=CN(CC2CC2)C(C)C)c(C)cc1Cc1ccccc1F [Compound 88, N-(cyclopropylmethyl)-N′-(4-(2-fluorobenzyl)-2,5-dimethylphenyl)-N-isopropylformimidamide]	> 75	> 80	> 80	> 75
Cc1cc(N=CN(CC2CC2)C(C)C)c(C)cc1Cc1ccccc1Cl [Compound 89, N′-(4-(2-chlorobenzyl)-2,5-dimethylphenyl)-N-(cyclopropylmethyl)-N-isopropylformimidamide]	> 75	> 80	> 80	> 75
CCN(C)C=Nc1cc(Cl)c(Cc2cccc(C)c2)cc1Cl [Compound 141, N′-(2,5-dichloro-4-(3-methylbenzyl)phenyl)-N-ethyl-N-methylformimidamide]	> 75	> 80	> 80	> 75
CCN(C)C=Nc1cc(Cl)c(Cc2ccccc2C)cc1Cl [Compound 151, N′-(2,5-dichloro-4-(2-methylbenzyl)phenyl)-N-ethyl-N-methylformimidamide]	> 75	> 80	> 80	> 75
CCN(C)C=Nc1cc(Cl)c(Cc2cccc(Cl)c2)cc1Cl [Compound 152, N′-(2,5-dichloro-4-(3-chlorobenzyl)phenyl)-N-ethyl-N-methylformimidamide]	> 75	> 80	> 80	> 75
CCN(C)C=Nc1cc(Cl)c(Cc2cccc(OC(F)(F)F)c2)cc1Cl [Compound 182, N′-(2,5-dichloro-4-(3-(trifluoromethoxy)benzyl)phenyl)-N-ethyl-N-methylformimidamide]	> 75	> 80	> 80	> 75
CCN(C)C=Nc1cc(C)c(C(C#N)c2ccc(C)cc2)cc1Cl (stereo not shown) [Compound 191, N′-(2-chloro-4-(cyano(p-tolyl)methyl)-5-methylphenyl)-N-ethyl-N-methylformimidamide]		> 80	> 80	
CCN(C)C=Nc1cc(C)c(C(C#N)c2ccc(Cl)cc2)cc1Cl (stereo not shown) [Compound 193, N′-(2-chloro-4-((4-chlorophenyl)(cyano)methyl)-5-methylphenyl)-N-ethyl-N-methylformimidamide]	> 75	> 80	> 80	
CCN(C)C=Nc1cc(C(F)(F)F)c(Cc2cccc(F)c2)cc1F [Compound 230, N-ethyl-N′-(2-fluoro-4-(3-fluorobenzyl)-5-(trifluoromethyl)phenyl)-N-methylformimidamide]	> 75	> 80	> 80	> 75
CCN(C)C=Nc1cc(C(F)(F)F)c(Cc2cccc(C(F)(F)F)c2)cc1F [Compound 232, N-ethyl-N′-(2-fluoro-5-(trifluoromethyl)-4-(3-(trifluoromethyl)benzyl)phenyl)-N-methylformimidamide]	> 75	> 80	> 80	> 75
CCN(C)C=Nc1cc(F)c(Cc2ccccc2F)cc1F [Compound 242, N′-(2,5-difluoro-4-(2-fluorobenzyl)phenyl)-N-ethyl-N-methylformimidamide]	> 75	> 80		> 75
CCN(C)C=Nc1cc(C(F)(F)F)c(Cc2cccc(F)c2)cc1C1CC1 [Compound 266, N′-(2-cyclopropyl-4-(3-fluorobenzyl)-5-(trifluoromethyl)phenyl)-N-ethyl-N-methylformimidamide]	> 75	> 80		> 75
